Tests used:
patient-derived PBMC = system: patient-derived PBMC
Text: FIG. 1: DOX effects on proliferation potential of PBMC from patients under neoadjuvant chemotherapy.
A. Flow cytometry of DOX internalization profile in PBMC isolated from a representative patient before and after DOX parenteral infusion.
B. Quantification of Mean Fluorescence Intensity (MFI) in PBMC isolated from patients. The profiles represent the values of DOX fluorescence in each patient before and after chemotherapy. The histogram reports the mean DOX fluorescence value between all the samples analyzed.
C. Representative image of proliferation analysis of PBMC isolated from BC patients before and after 1 cycle of neoadjuvant chemotherapy with DOX using CFSE assay.
D. Quantification of proliferative index at different days of culture after Concanavalin A stimulation (ConA). The proliferation index is the ratio between proliferating cells and progenitor cells. The absence of proliferation is represented by a proliferative index of 1.
FIG. 2: Characterization of lymphocytes subpopulations that internalize DOX. Flow cytometry immunophenotyping of T-Lymphocytes CD8+ e CD4+ to identify populations that internalize DOX (high, int, low). CM: Central Memory, EM: Effector Memory.

[1] = mouse, in vivo

COc1cccc2c1C(=O)c1c(O)c3c(c(O)c1C2=O)C[C@@](O)(C(=O)CO)C[C@@H]3O[C@H]1C[C@H](N)[C@H](O)[C@H](C)O1 [DOX, doxorubicin]
DOX uptake by lymphocyte sub-populations (patient-derived PBMC; FIG. 2): naïve T-cells (CD3+CD8+/CD4+CD45RO−) displayed the highest DOX uptake
DOX internalization in PBMC (patient-derived PBMC; PBMC isolated after chemotherapy (FIG. 1)): promptly internalized DOX
proliferation in response to mitogenic stimulations (patient-derived PBMC; after versus before chemotherapy (FIG. 1)): dramatic proliferative impairment
cardiomyocyte cross-section area [1]: increase in cardiomyocyte cross-section area
mitochondria area and cristae morphology [1]: alteration in mitochondria area and cristae morphology
mitochondria number in heart tissue [1]: increase in mitochondria number
mitochondrial membrane potential and amount of reduced glutathione [1]: induced alterations

Source: patent US20210393539A1, “FERRITIN NANOPARTICLES COMPRISING A CHEMOTHERAPEUTIC AGENT” (INTHENA S.R.L., priority 2018, published 2021)
